Here are results for 2 molecules from PMC5007854, “β-Nitrostyrenes as Potential Anti-leishmanial Agents” (Frontiers in Microbiology, 2016).

In brackets after ≈: the same amount, converted by molar mass.

The subject of data set [1] is Staphylococcus aureus ATCC 29213. The experiment in a line: Broth microdilution antibacterial susceptibility (MIC/MBC). In kind it is cell-based. As to conditions: for MIC / MBC: Staphylococcus aureus; for MIC: ATCC29213, 24 h, read-out: MIC, Sa ATCC 29213; for MBC: ATCC29213, ≥99.9% reduction of original inoculum, read-out: MBC, Sa ATCC 29213. The method, boiled down:
(§1)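 CLSI broth microdilution: Ca/Mg-supplemented Mueller-Hinton for bacteria (~5 × 10^5 CFU/mL, 24 h), MOPS-buffered RPMI 1640 pH 7.0 for fungi (Candida ~2.5 × 10^4, Aspergillus 0.4-5 × 10^4 CFU/mL, 48 h), 35°C, 1% DMSO, 64 to 0.12 μg/mL. MIC read visually; MBC/MFC by plating clear wells.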

Data set [2] concerns Pseudomonas aeruginosa ATCC 27853. Described as above. The format is cell-based. To be noted: for MIC / MBC: Pseudomonas aeruginosa; for MIC: ATCC27853, 24 h, read-out: MIC, Pa ATCC 27853; for MBC: ATCC27853, ≥99.9% reduction of original inoculum, read-out: MBC, Pa ATCC 27853. The method, boiled down:
as §1

Data set [3] relates to Staphylococcus epidermidis ATCC 14990. Described as above. In kind it is cell-based. To be noted: for MIC / MBC: Staphylococcus epidermidis; for MIC: ATCC14990, 24 h, read-out: MIC, Se ATCC 14990; for MBC: ATCC14990, ≥99.9% reduction of original inoculum, read-out: MBC, Se ATCC 14990. The method, boiled down: as §1
Data set [4] concerns Escherichia coli ATCC 25922. The data set is described as above. The format is cell-based. To be noted: for MIC / MBC: Escherichia coli; for MIC: ATCC25922, 24 h, read-out: MIC, Ec ATCC 25922; for MBC: ATCC25922, ≥99.9% reduction of original inoculum, read-out: MBC, Ec ATCC 25922. An outline of the steps: as §1
The subject of data set [5] is Aspergillus niger ATCC 16404. The experiment in a line: Broth microdilution antifungal susceptibility (MIC/MFC). The format is cell-based. As to conditions: for MIC / MFC: Aspergillus niger; for MIC: ATCC16404, 48 h, read-out: MIC, An ATCC 16404; for MFC: ATCC16404, ≥99.9% reduction of original inoculum, read-out: MFC, An ATCC 16404. The method, boiled down: as §1
Data set [6] relates to Candida albicans ATCC 90028. The description is as above. In kind it is cell-based. As to conditions: Candida albicans; for MFC: ATCC90028, ≥99.9% reduction of original inoculum, read-out: MFC, Ca ATCC 90028. The method, boiled down: as §1
For data set [7], the system named is Candida glabrata ATCC 90030. The data set is described as above. The format is cell-based. As to conditions: Nakaseomyces glabratus; for MFC: ATCC90030, ≥99.9% reduction of original inoculum, read-out: MFC, Cg ATCC 90030. An outline of the steps:
as §1

Data set [8] relates to Aspergillus fumigatus ATCC 16424. The data set is described as above. The format is cell-based. As to conditions: for MIC / MFC: Aspergillus fumigatus; for MIC: ATCC16424, 48 h, read-out: MIC, Af ATCC 16424; for MFC: ATCC16424, ≥99.9% reduction of original inoculum, read-out: MFC, Af ATCC 16424. The method, boiled down:
as §1

Data set [9] relates to L. donovani promastigotes. The experiment in a line: Anti-leishmanial screening at 100 μM, parasite viability by microscopy. The format is cell-based, Leishmania donovani. As to conditions: 100 μM, 72 h, phase contrast microscope. The method, boiled down:
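Promastigotes (MHOM/IN/83/AG83) at 2 × 10^6 cells/mL in M199 with 10% FBS exposed to compound at 100 μM for 72 h at 22°C. Viability assessed microscopically; 0.2% DMSO solvent control, amphotericin B reference.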

In data set [10] the test system is L. donovani promastigotes. The experiment in a line: Dose-dependent anti-promastigote activity, IC50 and IC90. In kind it is cell-based, Leishmania donovani. Here is the method:
L. donovani parasites (MHOM/IN/83/AG83) were maintained in vivo in BALB/c mice. Promastigotes were routinely cultured at 22°C in medium M199 supplemented with 10% heat inactivated fetal bovine serum (FBS, HiMedia Laboratories, Mumbai, India), penicillin 100 (IU/ml), streptomycin (100 μg/ml). Log phase promastigotes were sub-cultured every 72–96 h, the inoculum being 2 × 10^6 cells/ml (Afrin et al., [2002]).
AmB was used as a standard antileishmanial drug control. The cell viability was evaluated by microscopically and the mean percentage viability was calculated as follows: Mean cell number of treated parasites / Mean cell number of untreated parasites × 100. The 50 and 90% inhibitory concentration (IC50 and IC90) i.e., the concentration of drugs that decreased the cell growth by 50 and 90% respectively was determined by graphical extrapolation after plotting the graph of % viability vs. concentration of drug (Islamuddin et al., [2014b]).
In vitro antileishmanial activity was expressed as IC50 by linear regression analysis. Values are mean ± SE of samples in triplicate from at least three independent experiments. Statistical analysis was performed using ANOVA followed by Dunnett's test. ^*P < 0.05, ^**P < 0.01 and ^***P < 0.001 compared with the untreated control group were considered significant.

[11] abbreviates: broth microdilution, 35°C, 24 h.
The mark [12] stands for this setting: broth microdilution, 35°C, 48 h.

The molecule `CC/C(=C\c1cccc(O)c1)[N+](=O)[O-]` [Compound 21, 3-((E)-2-nitrobut-1-enyl) phenol] displayed a melting point of 82 to 84 °C. In data set [1] (setting [11]), the MIC fell in the range of 2 to 32 µg/mL (≈ 10.4 to 166 µM) and the “MIC, Sa ATCC 29213” value is 2 µg/mL (≈ 10.4 µM). Moreover, the MBC in data set [1] was 4 µg/mL (≈ 20.7 µM). Further, in data set [2] (setting [11]), the MIC fell in the range of 16 to 32 µg/mL (≈ 82.8 to 166 µM) and the “MIC, Pa ATCC 27853” value amounted to 32 µg/mL (≈ 166 µM). Moreover, the MBC in data set [2] was 64 µg/mL (≈ 331 µM). Besides, in [3] (setting [11]), the MIC was 2 to 16 µg/mL (≈ 10.4 to 82.8 µM) and the “MIC, Se ATCC 14990” value was 2 µg/mL (≈ 10.4 µM). For the same molecule, the minimal bactericidal concentration (MBC) in data set [3] was 2 µg/mL (≈ 10.4 µM). Moreover, in data set [4] (setting [11]), the MIC fell in the range of 16 to 32 µg/mL (≈ 82.8 to 166 µM) and the “MIC, Ec ATCC 25922” value turned out to be 32 µg/mL (≈ 166 µM). Besides, the MBC in data set [4] came out at 64 µg/mL (≈ 331 µM). Also, in [5] (setting [12]), the MIC was in the range of 2 to 4 µg/mL (≈ 10.4 to 20.7 µM) and the “MIC, An ATCC 16404” value worked out at 4 µg/mL (≈ 20.7 µM). The MFC in [5] is 8 µg/mL (≈ 41.4 µM). The MFC in [6] was 32 µg/mL (≈ 166 µM). Moreover, the MFC in data set [7] was determined as 16 µg/mL (≈ 82.8 µM). For the same molecule, in [8] (setting [12]), the MIC lay within 4 to 8 µg/mL (≈ 20.7 to 41.4 µM) and the “MIC, Af ATCC 16424” value came out at 8 µg/mL (≈ 41.4 µM). Also, the MFC in data set [8] stood at 8 µg/mL (≈ 41.4 µM). In [9], the “Parasite viability after treatment” value is on record as “All the parasites were found to be dead”. For the same molecule, in data set [10] (Leishmania donovani, 72 h, 22°C, values given in μM, read-out: IC50 against promastigotes), the IC50 stood at 28.4 ± 3.11 µM.
`COc1ccc(/C=C(\C)[N+](=O)[O-])cc1OC` [Compound 23, 1,2-dimethoxy-4-((E)-2-nitroprop-1-enyl) benzene] returned a melting point of 70 to 72 °C. Further, the MIC in data set [1] (setting [11]) was found to be 8 µg/mL (≈ 35.8 µM). In data set [1], the MBC is 16 µg/mL (≈ 71.7 µM). Besides, the MIC in [2] (setting [11]) was more than 64 µg/mL. Moreover, the MBC in data set [2] is more than 64 µg/mL. Also, the MIC in data set [3] (setting [11]) came to 8 µg/mL (≈ 35.8 µM). In addition, the MBC in [3] was determined as 8 µg/mL (≈ 35.8 µM). For the same molecule, the MIC in data set [4] (setting [11]) was more than 64 µg/mL. The MBC in data set [4] is more than 64 µg/mL. Besides, in data set [5] (setting [12]), the MIC worked out at 8 µg/mL (≈ 35.8 µM). Moreover, the MFC in data set [5] was determined as 8 µg/mL (≈ 35.8 µM). The MIC in data set [6] (ATCC90028, 48 h, broth microdilution, 35°C, 48 h, read-out: MIC, Ca ATCC 90028) was found to be 32 µg/mL (≈ 143 µM). In addition, in [6], the MFC is 32 µg/mL (≈ 143 µM). For the same molecule, in data set [7] (ATCC90030, 48 h, broth microdilution, 35°C, 48 h, read-out: MIC, Cg ATCC 90030), the MIC worked out at 4 µg/mL (≈ 17.9 µM). For the same molecule, the minimal fungicidal concentration (MFC) in [7] was 4 µg/mL (≈ 17.9 µM). The MIC in [8] (setting [12]) stood at 16 µg/mL (≈ 71.7 µM). Besides, in data set [8], the MFC amounted to 16 µg/mL (≈ 71.7 µM). In data set [9], the “Parasite viability after treatment” value is recorded as “All the parasites were found to be dead”. Besides, in data set [10] (L. donovani promastigotes), the “Anti-leishmanial activity, in words (compounds with IC50 determined)” value was “moderate activity”.
